According to the NIST ThermoML archive (doi:10.1016/j.jct.2014.11.007):

Assay: mn = molality of the nth substance listed, in mol/kg
Details: 100 kPa, Liquid; for speed of sound: Frequency=3 MHz, Sing-around technique in a fixed-path interferometer; for mass density: Vibrating tube method

O=C([O-])Cc1ccccc1Nc1c(Cl)cccc1Cl.[Na+] [sodium diclofenac] + O
Details	mass density, 293.15 K [kg/m3]	mass density, 298.15 K [kg/m3]	mass density, 303.15 K [kg/m3]	mass density, 308.15 K [kg/m3]	mass density, 313.15 K [kg/m3]	speed of sound, 293.15 K [m/s]	speed of sound, 298.15 K [m/s]	speed of sound, 303.15 K [m/s]	speed of sound, 308.15 K [m/s]	speed of sound, 313.15 K [m/s]
m1 = 0.00165	998.454	997.297	995.899	994.285	992.465	1483.5	1497.6	1509.9	1520.6	1529.6
m1 = 0.00255	998.563	997.404	996.005	994.389	992.569	1483.7	1497.7	1510	1520.7	1529.7
m1 = 0.0027	998.582	997.423	996.023	994.407	992.587	1483.7	1497.7	1510	1520.7	1529.7
m1 = 0.00314	998.638	997.477	996.078	994.461	992.64	1483.7	1497.8	1510.1	1520.7	1529.8
m1 = 0.00352	998.687	997.527	996.125	994.508	992.687	1483.8	1497.8	1510.1	1520.8	1529.8
m1 = 0.00413	998.769	997.607	996.205	994.588	992.767	1483.9	1497.9	1510.2	1520.8	1529.8
m1 = 0.00504	998.896	997.733	996.33	994.71	992.886	1484	1498	1510.3	1520.9	1529.9
m1 = 0.00604	999.044	997.88	996.477	994.853	993.027	1484.1	1498.1	1510.4	1521	1530
m1 = 0.00698	999.192	998.027	996.618	994.995	993.169	1484.2	1498.2	1510.5	1521.1	1530.1
m1 = 0.00742	999.257	998.095	996.689	995.064	993.238	1484.3	1498.3	1510.6	1521.1	1530.1
